{"source": "paper PMC8016788", "about": "(Clinical Pharmacokinetics, 2021)", "key": {"[1]": {"conditions": "10 mg"}, "[2]": {"assay": "clinical", "conditions": "human, plasma, oral, 10 mg"}, "[3]": {"conditions": "patients with type 2 diabetes and chronic kidney disease; model of van der Walt et al.; cited from earlier work"}, "[4]": {"test_system": "patients with non-diabetic kidney disease", "conditions": "primary result of the DIAMOND trial; cited from earlier work"}}, "note": "Read-outs that look alike come from different tables or passages of the source.", "data": [{"smiles": "CCOc1ccc(Cc2cc([C@@H]3O[C@H](CO)[C@@H](O)[C@H](O)[C@H]3O)ccc2Cl)cc1", "note": "[dapagliflozin]", "values": [{"measurement": "Predicted median AUC0–inf", "setting": "[1]; participants of 50 kg with mGFR 50 mL/min/1.73 m^2", "result": "1100.3 (1016.1–1204.1) ng h/mL"}, {"measurement": "Predicted median AUC0–inf", "setting": "[1]; participants of 70 kg with mGFR 15 mL/min/1.73 m^2", "result": "1566.1 (1348.4–1855.4) ng h/mL"}, {"measurement": "Predicted median AUC0–inf", "setting": "[1]; participants of 70 kg with mGFR 90 mL/min/1.73 m^2", "result": "539.2 (483.5–600.4) ng h/mL"}, {"measurement": "Predicted median AUC0–inf", "setting": "[1]; participants of 150 kg with mGFR 50 mL/min/1.73 m^2", "result": "483.0 (445.5–527.8) ng h/mL"}, {"measurement": "AUC(0-inf)", "setting": "[2]", "result": 741, "unit": "ng·h/mL"}, {"measurement": "Vd/F", "setting": "[2]", "result": 44.9, "unit": "L"}, {"measurement": "Apparent clearance", "setting": "[3]", "result": "approximately 10.5 L/h"}, {"measurement": "Effect on proteinuria in the DIAMOND trial", "setting": "[4]", "result": "did not decrease proteinuria"}]}]}
